Literature values, collected in patent publication US20100136125A1, “METHOD OF TREATING INFLAMMATORY BOWEL DISEASE” (Jacobus Pharmaceutical Company, Inc., priority 2006, published 2010).
Where two headings read alike, the source gives them in different places.

How the values were obtained:
[1] = target: T1, thiopurine methyltransferase (TPMT) (Homo sapiens, UniProt P51580); details: in vitro kinetic studies; read-out: IC50, non-competitive inhibition of TPMT
T1 sequence (P51580 1-245): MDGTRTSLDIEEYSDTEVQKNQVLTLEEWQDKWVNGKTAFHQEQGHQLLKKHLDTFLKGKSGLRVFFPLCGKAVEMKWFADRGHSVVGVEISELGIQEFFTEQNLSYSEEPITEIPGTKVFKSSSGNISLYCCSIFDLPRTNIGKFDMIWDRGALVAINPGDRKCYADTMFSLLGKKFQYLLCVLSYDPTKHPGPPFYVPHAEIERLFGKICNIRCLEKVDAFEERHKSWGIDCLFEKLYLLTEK

[2] = children, 300 mg/kg/day in 5 equal doses
[3] = in vivo
[4] = test system: active left-sided ulcerative colitis; details: 2 gram nightly retention enema, p<0.005 vs placebo
[5] = test system: distal ulcerative colitis; details: enema 2 g bid, open-label
[6] = test system: quiescent Crohn's ileocolitis; details: 1.5 g/d slow release, maintenance therapy
ulcerative colitis = details: topical
[7] = not given; remark: listed apart in the source
Crohn's disease [8] = details: in vivo
Crohn's disease [9] = test system: Crohn's disease
[10] = dose 4.0 gm PASER, 2.6-2.8 gm salts

In the case of `Nc1cccc(C(=O)O)c1O` [3-ASA], the IC50 [1] is given as 99 µM.
In the case of `Nc1ccc(C(=O)O)c(O)c1` [4-ASA, 4-aminosalicylic acid], the IC50 [1] is given as 2600 µM, the “excreted in the urine” value (in vivo) is given as no more than 80% and the “half-life of free 4-ASA” value (renal disease) is given as 30.8 min. The “dosage excreted in acetylated form” value (urine) was no less than 50%, the “half-life of free 4-ASA” value (without renal disease) was 26.4 min and the “serum level after 4 hours” value [2] was 2-2.5 mg percent. The “serum level of 4-ASA 60 minutes after oral solution” value [2] was no more than 120 micrograms/ml, the MIC (tuberculosis; bacteriostatic) was “under 2 μg/ml” and the half-life [3] was 50 min. The “significant improvement in clinical, sigmoidoscopic and histologic variables after 8 weeks” value [4] was 83%, the “participants with complete resolution of symptoms and sigmoidoscopic abnormalities by 8 weeks” value [5] was 46% and the “additional participants experiencing improvement” value ([5]; 8 weeks) was 31%. The “relapse rate after one year” value [6] was 36%, the “clinical improvement within 2 weeks” value (ulcerative colitis) was 79% and the “histologic improvement within 2 weeks” value (ulcerative colitis) was 44%. For the same molecule, the “sigmoidoscopic improvement within 2 weeks” value (ulcerative colitis) was 78%.
In the case of `Nc1ccc(O)c(C(=O)O)c1` [5-ASA, 5-aminosalicylic acid], the IC50 [1] is given as 1240 µM, the “anti-tuberculous activity” value (tuberculosis) is given as “no anti-tuberculous activity” and the “relapse rate after one year” value [6] is given as 38%. The “clinical improvement within 2 weeks” value (ulcerative colitis) was 79%, the “histologic improvement within 2 weeks” value (ulcerative colitis) was 44% and the “sigmoidoscopic improvement within 2 weeks” value (ulcerative colitis) was 78%.
In the case of `Nc1ccc(C(=O)O)c([O-])c1.Nc1ccc(C(=O)O)c([O-])c1.[Ca+2]` [Ca++ PAS], the “AOC0-∞” value ([7]; in vivo) is given as 326.83 µg·h/mL, the Cmax ([7]; in vivo) is given as 139.51 µg/mL and the Tmax ([7]; in vivo) is given as 61.2 min.
In the case of `Nc1ccc(C(=O)[O-])c(O)c1.[K+]` [K+ PAS], the “AOC0-∞” value [7, 10] is listed as 313.22 µg·h/mL, the Cmax [7, 10] is listed as 121.09 µg/mL and the Tmax [7, 10] is listed as 66 min.
For `Nc1ccc(C(=O)[O-])c(O)c1.[Na+]` [Na+ PAS], the “AOC0-∞” value ([7]; in vivo) is given as 313.22 µg·h/mL, the Cmax ([7]; in vivo) is given as 155.44 µg/mL and the Tmax ([7]; in vivo) is given as 49.8 min.
For `O=C(O)c1cc(/N=N/c2ccc(S(=O)(=O)Nc3ccccn3)cc2)ccc1O` [sulfasalazine], the IC50 [1] is listed as 78 µM.
In the case of Acetyl-para-aminosalicylate [Ac-PAS], the “half-life of the acetylated metabolite” value (normals) is given as 51 min and the “half-life of the acetylated metabolite” value (uremic patients) is given as 309 min.
In the case of “granulocyte-macrophage stimulating factor: granulocyte-macrophage stimulating factor studied in active Crohn's disease”, the “time by which significant clinical activity is demonstrated” value (Crohn's disease [8]) is listed as no more than 15 days.
For “infliximab: TNF antagonist, chimeric monoclonal antibody cA2 to tumor necrosis factor α”, the remission rate (Crohn's disease [9]; at 4 weeks) is listed as 33%, the response rate (Crohn's disease [9]; at 4 weeks) is listed as 65% and the “remission (CDAI<150 and IBDQ>170-190)” value (Crohn's disease [9]; by two weeks) is listed as 27%. For the same molecule, the “response (decrease in CDAI≧70 points)” value (Crohn's disease [9]; by two weeks) was 61%.
